Reference: PubChem BioAssay AID1636 (PCMD, 2009)

Biological target: Procathepsin L (Homo sapiens) (UniProt P07711)
Assay: CTSL enzyme inhibitors – biochemical, probe 2, dose response (AID 1636)
Conditions: purified human cathepsin L enzyme inhibition

Sequence of Procathepsin L (Homo sapiens) (P07711 114-288 limits assumed): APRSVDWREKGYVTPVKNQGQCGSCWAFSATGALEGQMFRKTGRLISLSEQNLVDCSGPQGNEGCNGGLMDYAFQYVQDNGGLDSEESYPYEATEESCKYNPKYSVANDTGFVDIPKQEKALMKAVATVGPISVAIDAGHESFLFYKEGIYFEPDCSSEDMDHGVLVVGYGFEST
Sequence of Procathepsin L (Homo sapiens) (P07711 292-333 limits assumed): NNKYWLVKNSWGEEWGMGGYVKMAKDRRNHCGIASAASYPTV

SMILES: CC(C)(C)OC(=O)N[C@@H](Cc1c[nH]c2ccccc12)C(=O)NNC(=O)OCC(=O)N1CCCc2ccccc21
- IC50: 7 nM
